How the values were obtained:
[1] = system: Ba/F3-TPM3-NTRK1-G667C cells; assay: Growth inhibition of Ba/F3-TPM3-NTRK1-G667C cells (Cell Titer-Glo); format: cell-based; conditions: 72 hours, CTG; read-out: inhibitory activity IC50 Ba/F3-TPM3-NTRK1-G667C
How it was run: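 Ba/F3 cells were exposed for 72 hours to serially DMSO-diluted compound at a top final concentration of 10 μM. Viability was read by Cell Titer-Glo luminescence after the plate equilibrated 30 min at room temperature and was then shaken 1 hour in the dark at room temperature.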

TRKA^WT kinase = TRKA^WT kinase (Homo sapiens (Human), UniProt P04629); assay: Inhibitory activity against TRKA WT kinase (Caliper mobility shift); format: biochemical; conditions: in vitro kinase assay
Description: (§1) Kinase Assay Process: 1× Kinase buffer was prepared. […] The compounds were serially diluted into 10 concentrations ([…], 0.15, and 0.05 nM) using a Precision 3-fold dilution method. By using the Echo550 liquid handler, 250 nL of the 100-fold final concentration compound was transferred to an OptiPlate-384F plate. a 2.5× final concentration kinase solution was prepared using 1× Kinase buffer. 10 μL of the 2.5× final concentration kinase solution was added to the compound wells and the positive control wells, and 10 μL of 1× Kinase buffer was added to the negative control wells. The plate was centrifuged at 1000 rpm for 30 seconds, vortexed for mixing, and then incubated at room temperature for 10 minutes. A mixture of 5/3× final concentration of ATP and Kinase Substrate 22 was prepared using 1× Kinase buffer. 15 μL of the mixture of the 5/3× final concentration ATP and the substrate was added to initiate the reaction, the 384-well plate was centrifuged at 1000 rpm for 30 seconds, vortexed for mixing, and incubated at room temperature for the required time. 30 μL of the termination solution was added to stop the kinase reaction, the plate was centrifuged at 1000 rpm for 30 seconds, and vortexed for mixing. The conversion rate was measured using the Caliper EZ Reader.
(§2) Data Analysis: the inhibition rate was calculated as follows:
(§3) % Inhibition=(Conversion %_max−conversion %_sample)÷(Conversion %_max−conversion %_min)×100
(§4) Conversion %_sample is the conversion rate reading for the sample; Conversion %_min is the average value of the negative control wells, representing the conversion rate for wells without enzyme activity: Conversion %_max is the average value of the positive control wells, representing the conversion rate for wells without compound inhibition. A dose-response curve was fitted using the log concentration of the compound as the X-axis and the percentage inhibition as the Y-axis. The log(inhibitor) vs. response-variable slope of the GraphPad Prism 5 software was used to fit the dose-response curve, and the IC50 value for each compound was obtained. The calculation formula is:
(§5) Y=Bottom+(Top−Bottom)/(1+10^((Log IC50−X)*HillSlope)).
(§6) wherein X represents the concentration of the compound to be tested; Y represents the inhibition rate at the concentration X: Top refers to the maximum response: Bottom refers to the baseline response; HillSlope refers to the slope of the curve (i.e., the gradient).

TRKA^F589L kinase = TRKA^F589L kinase (Homo sapiens (Human), UniProt P04629, F589L); assay: Inhibitory activity against TRKA(F589L) kinase (Caliper mobility shift); format: biochemical; conditions: in vitro kinase assay
Description: as §1, §2, §3, §4, §5, §6

[2] = system: Ba/F3-TPM3-NTRK1-G595R cells; assay: Growth inhibition of Ba/F3-TPM3-NTRK1-G595R cells (Cell Titer-Glo); format: cell-based; conditions: 72 hours, CTG; read-out: inhibitory activity IC50 Ba/F3-TPM3-NTRK1-G595R
Description: (§7) Then the solutions were subjected to a gradient dilution with DMSO: a clean, sterile V-bottom 96-well microplate was placed in the biological safety cabinet. First, 4 μL of DMSO was added to well B2 and 10 μL of DMSO was added to wells B3-B11 respectively; Next, 6 μL of the 10 mM solution was added to well B2. The microplate was pipetted up and down 10 times for mixing. […] Mixing was performed by pipetting up and down 10 times. The solution was diluted in order until well B10. only DMSO was added to well B11 (no compound).
(§8) 6× Compound Solution Preparation (6-fold dilution, × represents dilution factor): (Initial final concentration: 10 μM), a clean, sterile V-bottom 96-well microplate was placed in the biological safety cabinet. 99 μL of cell culture medium was added to each well from B2 to G11. By using a 12-channel pipettor, 1 μL of the compound solution prepared in the previous step was added into the corresponding wells. The solutions were pipetted up and down 10 times to mix the solutions. The highest concentration of compound in this step was 60 μM.
(§9) Treatment of Cells: the above-prepared cell culture plate was taken out of the incubator. 20 μL of compound solution from each well was added to the corresponding cell culture wells. The lowest pipetting speed was used and touching the bottom of the plate was avoided. The culture plate was gently shaked to mix the compound solution, then the plate was returned to the incubator for further culture for 72 hours.
(§10) The highest treatment concentration of the compound was 10 μM. After 72 hours of treatment, the Cell Titer-Glo (CTG) assay was performed. First, the cell culture plate was removed from the CO2 incubator and allowed to stand at room temperature for 30 minutes to ensure uniform temperature of the plate. The pre-prepared Cell Titer-Glo reagent (following the manufacturer's instructions) was taken and allowed to stand at room temperature to thaw. 60 μL of Cell Titer-Glo reagent was added to each well containing cells. The cells were incubated on a horizontal shaker in a dark place at 225 rpm for 1 hour at room temperature. Then, a Tecan Spark microplate reader was used to read the plate using chemiluminescence according to the manufacturer's instructions.

[3] = system: Ba/F3-TPM3-NTRK1-WT cells; assay: Growth inhibition of Ba/F3-TPM3-NTRK1-WT cells (Cell Titer-Glo); format: cell-based; conditions: 72 hours, CTG; read-out: inhibitory activity IC50 Ba/F3-TPM3-NTRK1-WT
Description: as §7, §8, §9, §10

TRKA^F589L kinase, sequence (P04629 33-796 F589L): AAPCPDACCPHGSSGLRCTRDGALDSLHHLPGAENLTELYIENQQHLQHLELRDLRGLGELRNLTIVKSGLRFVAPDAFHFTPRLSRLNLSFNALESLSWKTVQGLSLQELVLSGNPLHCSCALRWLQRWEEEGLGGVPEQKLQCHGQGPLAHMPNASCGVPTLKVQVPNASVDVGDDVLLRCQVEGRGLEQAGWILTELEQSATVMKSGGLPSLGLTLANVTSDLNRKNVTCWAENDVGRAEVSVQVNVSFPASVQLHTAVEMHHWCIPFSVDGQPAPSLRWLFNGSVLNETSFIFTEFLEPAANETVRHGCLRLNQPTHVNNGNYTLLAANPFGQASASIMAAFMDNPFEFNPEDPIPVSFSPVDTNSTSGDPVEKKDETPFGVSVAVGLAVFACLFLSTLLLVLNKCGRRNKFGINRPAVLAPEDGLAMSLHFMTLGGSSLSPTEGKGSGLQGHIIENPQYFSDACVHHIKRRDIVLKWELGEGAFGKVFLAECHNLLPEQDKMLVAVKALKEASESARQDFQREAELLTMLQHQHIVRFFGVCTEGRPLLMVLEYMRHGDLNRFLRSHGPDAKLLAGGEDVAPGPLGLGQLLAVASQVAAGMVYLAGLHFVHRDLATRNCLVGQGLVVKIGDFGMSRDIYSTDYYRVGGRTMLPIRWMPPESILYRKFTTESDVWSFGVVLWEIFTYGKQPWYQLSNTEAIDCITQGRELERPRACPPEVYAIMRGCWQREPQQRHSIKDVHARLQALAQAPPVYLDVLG
TRKA^WT kinase, sequence (P04629 33-796): as the sequence (P04629 33-796 F589L) above, with L557F counted along it

| Compound | IC50 [1] [nM] | IC50 (TRKA^WT kinase) [nM] | IC50 (TRKA^F589L kinase) [nM] | IC50 [2] [nM] | IC50 [3] [nM] |
| --- | --- | --- | --- | --- | --- |
| C[C@H]1Nc2ccc3ncc(n3n2)-c2cc(ccn2)COc2c(F)cc(F)cc21 [Example I-16, (R)-(E)-5^4,5^6-difluoro-6-methyl-4-oxa-7-aza-1(3,6)-imidazo[1,2-b]pyridazine-2(2,4)-pyridina-5(1,2)-benzenacycloheptaphane] | < 100 | < 3 | < 5 | – | – |
| C[C@H]1Nc2ccc3ncc(n3n2)-c2cc(cnn2)CCOc2ncc(F)cc21 [Example I-89, (4R,E)-5^5-fluoro-4-methyl-6-oxa-3-aza-2(3,6)-imidazo[1,2-b]pyridazina-1(3,5)-pyridazina-5(3,2)-pyridinacyclooctaphane] | < 100 | < 3 | < 5 | – | – |
| C[C@H]1Nc2ccc3ncc(n3n2)-c2cc(ccn2)CCOc2ccccc21 [Example I-28, (4R,E)-4-methyl-6-oxa-3-aza-2(3,6)-imidazo[1,2-b]pyridazina-1(2,4)-pyridina-5(1,2)-benzenacyclooctaphane] | < 100 | < 3 | < 5 | – | – |
| C[C@H]1Nc2ccc3ncc(n3n2)-c2cncc(c2)COc2ccc(F)cc21 [Example I-22, (R)-(E)-5^4-fluoro-6-methyl-4-oxa-7-aza-1(3,6)-imidazo[1,2-b]pyridazina-2(3,5)-pyridina-5(1,2)-benzenacycloheptaphane] | < 100 | < 3 | < 5 | – | – |
| Fc1cnc2c(c1)[C@H]1C[C@H](F)CN1c1ccc3ncc(n3n1)-c1nccc(n1)CCO2 [Example I-88, (3^2R,3^4S,E)-3^4,4^5-difluoro-5-oxa-2(3,6)-imidazo[1,2-b]pyridazina-1(2,4)-pyrimidina-4(3,2)-pyridina-3(1,2)-pyrrolidinacycloheptaphane] | 10.1 | < 3 | < 5 | 1.7 | 0.12 |
| (R)-(E)-4-methyl-6-oxa-3-aza-2(3,6)-imidazo[1,2-b]pyridazina-1(4,6)-pyrimidina-5(1,2)-benzenacyclooctaphane [Example I-32] | < 100 | < 3 | < 5 | – | – |
| Fc1ccc2c(c1)[C@H]1CCCN1c1ccc3ncc(n3n1)-c1cc(ccn1)CO2 [Example I-49, (14bR,E)-13-fluoro-14b,15,16,17-tetrahydro-9H-1,19-etheno-4,8-(metheno)benzo[b]imidazo[1,5-h]pyrrolo[2,1-d][1]oxa[5,7,8,11]tetraazacyclopentadecine] | < 100 | < 3 | < 5 | – | – |
| C[C@H]1Nc2ccc3ncc(n3n2)-c2cc(ncn2)COc2ccccc21 [Example I-26, (R)-(E)-6-methyl-4-oxa-7-aza-1(3,6)-imidazo[1,2-b]pyridazina-2(4,6)-pyrimidina-5(1,2)-benzenacycloheptaphane] | < 100 | < 3 | < 5 | – | – |
| C[C@H]1Nc2ccc3ncc(n3n2)-c2cc(ccn2)COc2ccccc21 [Example I-18, (R)-(E)-6-methyl-4-oxa-7-aza-1(3,6)-imidazo[1,2-b]pyridazine-2(2,4)-pyridina-5(1,2)-benzenacycloheptaphane] | < 100 | < 3 | < 5 | – | – |
| Fc1ccc2c(c1)[C@H]1CCCN1c1ccc3ncc(n3n1)-c1cc(ncn1)CCO2 [Example I-69, (3^2R,E)-4^5-fluoro-5-oxa-2(3,6)-imidazo[1,2-b]pyridazina-1(4,6)-pyrimidina-3(1,2)-pyrrolidina-4(1,2)-benzenacycloheptaphane] | < 100 | < 3 | < 5 | – | – |
| C[C@H]1Nc2ccc3ncc(n3n2)-c2cc(ccn2)COc2ncccc21 [Example I-20, (R)-(E)-6-methyl-4-oxa-7-aza-1(3,6)-imidazo[1,2-b]pyridazina-2(2,4), 5(2,3)-dipyridinacycloheptaphane] | < 100 | < 3 | < 5 | – | – |
| C[C@@H]1Cc2cc(ncn2)-c2cnc3ccc(nn23)N2CCC[C@@H]2c2cc(F)ccc2O1 [Example I-97, (3^2R,6R,E)-4^5-fluoro-6-methyl-5-oxa-2(3,6)-imidazo[1,2-b]pyridazina-1(4,6)-pyrimidina-3(1,2)-pyrrolidina-4(1,2)-benzenacycloheptaphane] | < 100 | < 3 | < 5 | – | – |
| C[C@H]1Cc2ccnc(n2)-c2cnc3ccc(nn23)N2CCC[C@@H]2c2cc(F)cnc2O1 [Example I-95, (32R,6S,E)-4-fluoro-6-methyl-5-oxa-2(3,6)-imidazo[1,2-b]pyridazina-1(2,4)-pyrimidina-4(3,2)-pyridina-3(1,2)-pyrrolidinacycloheptaphane] | < 100 | < 3 | < 5 | – | – |
| C[C@H]1Nc2ccc3ncc(n3n2)-c2cc(ccn2)OCc2ncc(F)cc21 [Example I-24, (R)-(E)-5^5-fluoro-6-methyl-3-oxa-7-aza-1(3,6)-imidazo[1,2-b]pyridazina-2(2,4), 5(2,3)-dipyridinacycloheptaphane] | < 100 | < 3 | < 5 | – | – |
| C[C@@H]1Cc2cc(ncn2)-c2cnc3ccc(nn23)N2C[C@@H](F)C[C@@H]2c2cc(F)ccc2O1 [Example I-98, (3^2R,3^4S,6R,E)-3^4,4^5-difluoro-6-methyl-5-oxa-2(3,6)-imidazo[1,2-b]pyridazina-1(4,6)-pyrimidina-3(1,2)-pyrrolidina-4(1,2)-benzenacycloheptaphane] | 16.3 | < 3 | < 5 | 1.5 | 0.22 |
| C[C@H]1Nc2ccc3ncc(n3n2)-c2cc(ccn2)COc2ccc(F)cc21 [Example I-14, (R)-(E)-5^4-fluoro-6-methyl-4-oxa-7-aza-1(3,6)-imidazo[1,2-b]pyridazina-2(2,4)-pyridina-5(1,2)-benzenacycloheptaphane] | < 100 | < 3 | < 5 | – | – |
| C[C@H]1Nc2ccc3ncc(n3n2)-c2cc(ccn2)OCc2ccc(F)cc21 [Example I-30, (R)-(E)-5^4-fluoro-6-methyl-3-oxa-7-aza-1(3,6)-imidazo[1,2-b]pyridazina-2(2,4)-pyridina-5(1,2)-benzenacycloheptaphane] | < 100 | < 3 | < 5 | – | – |

Source: patent publication US20260028352A1, “MACROCYCLIC IMIDAZO [1,2-B] PYRIDAZINE DERIVATIVE, PREPARATION METHOD THEREFOR, AND USE THEREOF” (SUZHOU LANGRUI BIOPHARMACEUTICAL CO., LTD., priority 2022, published 2026)
